Measured values reported in patent publication US4261885A, “Novel somatostatin analogue” (Shiraimatsu Shingaku Co., Ltd., priority 1978, dated 1981).
Peptide text beside a SMILES is read from it.

What was measured:
blood glucose levels = test: Arginine-induced changes in blood glucose in rats (glucose oxidase method); format: in vivo, rat
Experimental: (§1) Studies were made of the effects of the compound of this invention on arginine-induced changes in blood glucose, insulin and glucagon levels and the results obtained were compared with those of somatostatin.
(§2) Male SD rats weighing 300 to 500 g were anesthetized with sodium pentobarbital (60 mg/kg of body weight, by intraabdominal puncture) and polyethylene catheters were placed in their carotid artery. Saline was infused over 10 minutes, and arginine was infused at a rate of 3 g/kg/hr, for 60 minutes, using an infusion pump (at a rate of 4.5 ml/kg/hr). For 30 minutes, immediately after the start of arginine infusion, somatostatin or the compound of this invention was infused at rates of 4 μg/kg/hr, as a basal dose, 40 μg/kg/hr as 10 times as the basal dose, and 400 μg/kg/hr, as 100 times as the basal dose, respectively.
(§3) Before and 15 minutes, 30 minutes and 60 minutes after the start of arginine infusion, blood samples were taken in the presence of heparine. Blood glucose values were measured by the glucose oxidase method, and blood insulin and glucagon values were measured by the radioimmunoassay method.

blood insulin levels = test: Arginine-induced changes in blood insulin in rats (radioimmunoassay); format: in vivo, rat
Experimental: as §1, §2, §3

blood glucagon levels = test: Arginine-induced changes in blood glucagon in rats (radioimmunoassay); format: in vivo, rat
Experimental: as §1, §2, §3

mouse = test: Acute toxicity, infusion into the tail vein of a test mouse; format: in vivo
Experimental: The experiment for determining acute toxicity is carried out by infusing this compound into the tail vein of a test mouse in the amount of 5 mg/kg of body weight.

Solubility in water = format: physicochemical
[1] = Stability in pharmaceutical preparations; format: physicochemical; settings: when used in pharmaceutical preparations
[2] = rats, arginine 3 g/kg/hr, substance infused for 30 minutes

Row | SMILES | blood glucose level versus control (blood glucose levels; at 100 times the basal dose (basal 4 μg/kg/hr), 30 minutes after start of arginine infusion) | blood glucose level versus control (blood glucose levels; at more than 10 times the basal dose (basal 4 μg/kg/hr), 15 minutes after start of arginine infusion) | rise in blood glucose levels induced by arginine (blood glucose levels; [2]) | effect after the suspension of infusion (blood insulin levels; 15 minutes after the suspension of infusion, conclusion on insulin and glucagon) | effect on blood insulin level after suspension of infusion (blood insulin levels; 45 minutes after start of arginine infusion = 15 minutes after suspension of substance infusion) | rise in blood insulin levels versus control (blood insulin levels; at more than 10 times the basal dose, 15 minutes after start of arginine infusion) | rise in blood insulin levels versus control (blood insulin levels; at more than 100 times the basal dose, 30 minutes after start of arginine infusion) | rise in blood insulin levels (insulin secretion) enhanced by arginine (blood insulin levels; [2]) | effect on blood glucagon level (blood glucagon levels; 45 minutes after start of arginine infusion) | blood glucagon level versus control (blood glucagon levels; at more than 10 times the basal dose, 15 minutes and 30 minutes after start of arginine infusion) | changes or side effects in respect of body weight, body temperature and blood sugar value (mouse; tail vein infusion, 5 mg/kg of body weight) | acute toxicity (mouse; tail vein, concluded from the 5 mg/kg experiment) | solubility in water (Solubility in water) | stability compared with somatostatin [1]
1 | C[C@H](N)C(=O)NCC(=O)N[C@H]1CSSC[C@@H](C(=O)O)NC(=O)[C@H](CO)NC(=O)[C@H]([C@@H](C)O)NC(=O)[C@H](Cc2ccccc2)NC(=O)[C@H]([C@@H](C)O)NC(=O)[C@H](CCCCN)NC(=O)[C@H](Cc2c[nH]c3ccccc23)NC(=O)[C@H](Cc2ccccc2)NC(=O)[C@H](Cc2ccccc2)NC(=O)[C@H](CC(N)=O)NC(=O)[C@H](CCCCN)NC1=O [somatostatin] | Statistically significant low levels of blood glucose | Statistically significant low levels of blood glucose | inhibited | its effect was no longer observed | failed to exert its effect | significantly inhibited | significantly inhibited | inhibited the rise in blood insulin levels dose dependently | lost its effect | significantly lowered its level | – | – | – | –
2 | C[C@@H](O)[C@@H]1NC(=O)[C@H](CCCCN)NC(=O)[C@@H](Cc2c[nH]c3ccccc23)NC(=O)[C@H](Cc2ccccc2)NC(=O)[C@H](Cc2ccccc2)NC(=O)[C@H](CC(N)=O)NC(=O)[C@H](CCCCN)NC(=O)CCCCC[C@H](C(=O)O)NC(=O)[C@H](CO)NC(=O)[C@H]([C@@H](C)O)NC(=O)[C@H](Cc2ccccc2)NC1=O [the compound of this invention, Des-(Ala^1,Gly^2)-(D-Trp^8,D-Asu^3,14)-somatostatin] (HELM PEPTIDE1{K.N.F.F.[dW].K.T.F.T.S.[O=C(O)[C@@H](CCCCCC(=O)[*:3])N[*:1]]}$PEPTIDE1,PEPTIDE1,1:R1-11:R3$$$V2.0) | – | – | – | – | – | – | – | – | – | – | No significant changes or side effects were observed | considered to be insignificant | soluble in water | far superior to somatostatin
